28 molecules from patent publication EP0391644B1, “Aryl-substituted rhodanine derivatives” (ELI LILLY AND COMPANY, priority 1989, dated 1990) can be followed below.

Structures can show the parent of a compound that is named as a salt.

One assay has as its system ischemia-induced brain damage in the hippocampal CA1 region. The assay can be described thus: Stroke model in rats. The conditions noted are these: 50 mg/kg given orally as a suspension in 2% acacia; mean ± standard error; scale 0 = no damage to 3 = severe damage of CA1 layer. Type of assay: in vivo, Male Wistar rats. The source says: Strokes were produced in rats by occluding the four arteries that supply blood to the brain according to the following procedure. Male Wistar rats were anesthetized with Metofane and placed into a stereotaxic instrument. A longitudinal incision was made on the dorsal surface of the neck. The neck muscles were reflected to expose the dorsal surface of the spinal column. The two vertebral arteries were exposed where they pass through the first cervical vertebra. Both arteries were permanently occluded by the application of electrocautery. After coagulation of the vertebral arteries, the rat was removed from the stereotaxic instrument and the surgical wound was sutured. Two longitudinal incisions were then made on the ventral surface of the neck. The two common carotid arteries were exposed and dissected free from surrounding nerves and connective tissue. An atraumatic clasp, fabricated mainly from silicon rubber tubing, was placed around each carotid artery in a manner such that the vessel was not traumatized or occluded. The surgical wounds were then closed. The atraumatic clasps were designed in such a manner that they could be tightened to occlude the carotid arteries by pulling on a small silastic thread that was allowed to protrude from the wound. Circulation to the brain through the carotids could be restored by relieving the tension on the silastic threads. After the surgery, the rats were allowed to recover for 24 hours.
On the day of testing, compounds were suspended in 2% acacia and were administered orally at various times before stroke induction. Strokes (cerebral ischemia) were induced by tightening the clasps around the carotids for a period of 30 minutes. During this time, rats in which strokes had successfully been produced lost the righting reflex and became unresponsive to stimuli. After 30 minutes of ischemia, tension on the clasps was removed and blood flow to the brain restored. Rats were again treated with compounds on the morning after the stroke. On the third day after the stroke the animals received an overdose of barbituate anesthetic, and the brain was perfused in situ with 10% neutral, buffered formalin. After perfusion with amounts of formalin adequate to fix the brain, the brains were removed and stored in 10% formalin until histological sections could be prepared.
One of the areas of the brain that is most susceptible to ischemia induced damage both in the rat and the human is the CA1 pyramidal cell layer of the hippocampus. In animals that remain unresponsive for the 30 minute period of ischemia, the CA1 pyramidal cell layer is completely destroyed. This layer of cells was examined microscopically in histological sections prepared from the hippocampus. Brain damage was rated according to the following scale: 0 = no damage, completely intact cell layer 1 = mild damage, one-third of CA1 layer dead 2 = moderate damage, two-thirds of CA1 layer dead 3 = severe damage, complete destruction of CA1 layer
Damage in 10-12 sections from each brain was assessed in order to obtain an accurate estimate of damage. An average damage score was calculated for each treatment group. Scores from treated groups were compared statistically with scores from control groups which received only the vehicle (2% acacia) that was used to suspend the compounds. The level of significance was determined using Student's "t-test".
Regarding `CC(C)(C)c1cc(C=C2CCNC2=O)cc(C(C)(C)C)c1O` [Example 69, 3-{[3,5-bis(1,1-dimethylethyl)-4-hydroxyphenyl]methylene}-2-pyrrolidinone], the “Damage Score” value is on record as 0.98 ± 0.42 (p=0.037).

Still in this assay, the particulars now being: 100 mg/kg given orally as a suspension in 2% acacia; mean ± standard error; scale 0 = no damage to 3 = severe damage of CA1 layer.
As to `COCCN1CSC(=Cc2cc(C(C)(C)C)c(O)c(C(C)(C)C)c2)C1=O` [Example 7, 5-{[3,5-bis(1,1-dimethylethyl)-4-hydroxyphenyl]methylene}-3-(2-methoxyethyl)-4-thiazolidinone], the “Damage Score” value amounted to 2.5 ± 0.2.
On the same count and under the same terms, the result for `CN1CCC(=Cc2cc(C(C)(C)C)c(O)c(C(C)(C)C)c2)C1=O` [Example 70, 3-{[3,5-bis(1,1-dimethylethyl)-4-hydroxyphenyl]-methylene}-1-methyl-2-pyrrolidinone] reads 0.7 ± 0.4 (p=0.039).
Same read-out and setting: the result for `CN1CSC(Cc2cc(C(C)(C)C)c(O)c(C(C)(C)C)c2)C1=O` (stereo not drawn) [Example 11, 5-{[3,5-bis(1,1-dimethylethyl)-4-hydroxyphenyl]methyl}-3-methyl-4-thiazolidinone] reads 2.1 ± 0.3; that for `COc1ccc(CN2CSC(=Cc3cc(C(C)(C)C)c(O)c(C(C)(C)C)c3)C2=O)cc1` [Example 36, 5-{[3,5-bis(1,1-dimethylethyl)-4-hydroxyphenyl]methylene}-3-[(4-methoxyphenyl)methyl]-4-thiazolidinone], 2.3 ± 0.4.
Regarding `CC(C)(C)c1cc(C=C2SC(=O)NC2=O)cc(C(C)(C)C)c1O` [Example 67, 5-{[3,5-bis(1,1-dimethylethyl)-4-hydroxyphenyl]methylene}-2,4-thiazolidinedione], the “Damage Score” value is given as 1.4 ± 0.3 (p<0.05).
Still for that read-out and setting: the result for `CSCCN1CSC(=Cc2cc(C(C)(C)C)c(O)c(C(C)(C)C)c2)C1=O` [Example 6, 5-{[3,5-bis(1,1-dimethylethyl)-4-hydroxyphenyl]methylene}-3-[2-(methylthio)ethyl]-4-thiazolidinone] reads 2.5 ± 0.2.

For a further assay, the system named is adjuvant-induced arthritis. In words: Developing Adjuvant-Induced Arthritis Test in Rats. Type of assay: in vivo, male Lewis-Wistar rats. The following applies: 50 mg/kg P.O. x 29; AUC of uninjected paw volumes, Days 16 through 30.
Take “5-{[3,5-bis(1,1-dimethylethyl)-4-hydroxyphenyl]methylene}-3-[2-(4-morpholinyl)ethyl]amino-4-thiazolidinone [Example 49]”: the “% Inhibition of Uninjected Paw Volume Inflammation” value worked out at 36%.

The same assay, now with this note: Rattus norvegicus, po, 720 h; 25 mg/kg P.O. x 29; AUC of uninjected paw volumes, Days 16 through 30; read-out: % Inhibition of Uninjected Paw Volume Inflammation.
With `CCNN1CSC(=Cc2cc(C(C)(C)C)c(O)c(C(C)(C)C)c2)C1=O` [Example 52, 5-{[3,5-bis(1,1-dimethylethyl)-4-hydroxyphenyl]methylene}-3-(ethylamino)-4-thiazolidinone], the inhibition in vivo at 25 mg/kg turned out to be 45%.

Staying with this assay, now noted: Rattus norvegicus, po, 720 h; 50 mg/kg P.O. x 29; AUC of uninjected paw volumes, Days 16 through 30; read-out: % Inhibition of Uninjected Paw Volume Inflammation.
As for `COCCN1CSC(=Cc2cc(C(C)(C)C)c(O)c(C(C)(C)C)c2)C1=O` [Example 7, 5-{[3,5-bis(1,1-dimethylethyl)-4-hydroxyphenyl]methylene}-3-(2-methoxyethyl)-4-thiazolidinone], the inhibition in vivo at 50 mg/kg was 30%.
Same read-out and setting: the result for `CN1CSC(Cc2cc(C(C)(C)C)c(O)c(C(C)(C)C)c2)C1=O` (stereo not drawn) [Example 11, 5-{[3,5-bis(1,1-dimethylethyl)-4-hydroxyphenyl]methyl}-3-methyl-4-thiazolidinone] reads 19.7%; that for `CCCCN(C)N1CSC(=Cc2cc(C(C)(C)C)c(O)c(C(C)(C)C)c2)C1=O` [Example 41, 5-{[3,5-bis(1,1-dimethylethyl)-4-hydroxyphenyl]methylene}-3-(butylmethylamino)-4-thiazolidinone], 27%.
`CC(=O)OCCCc1cc(C=C2SCN(N(C)C)C2=O)cc(CCCOC(C)=O)c1O` [Example 64, 5-{[3,5-bis[3-(acetyloxy)propyl]-4-hydroxyphenyl]methylene}-3-(dimethylamino)-4-thiazolidinone]: the inhibition in vivo at 50 mg/kg was found to be 5.5%.
As for `CN1C(=O)C(=Cc2cc(C(C)(C)C)c(O)c(C(C)(C)C)c2)SC1O` (stereo not drawn) [Example 71, 5-{[3,5-bis(1,1-dimethylethyl)-4-hydroxyphenyl]methylene}-2-hydroxy-3-methyl-4-thiazolidinone], the inhibition in vivo at 50 mg/kg was 48.2%.
Still for that read-out and setting: the result for `Cc1cc(C=C2SCN(N)C2=O)cc(C(C)(C)C)c1O` [Example 59, 3-amino-5-{[3-(1,1-dimethylethyl)-4-hydroxy-5-methylphenyl]methylene}-4-thiazolidinone] reads 19.8%.
Same read-out and setting: the result for `CC(C)(C)c1cc(C=C2SCN(CCNCc3ccccc3)C2=O)cc(C(C)(C)C)c1O` [Example 33, 5-{[3,5-bis(1,1-dimethylethyl)-4-hydroxyphenyl]methylene}-3-{2-[(phenylmethyl)amino]ethyl}-4-thiazolidinone hydrochloride] reads 30.1%.
In the case of `CC(C)(C)c1cc(C=C2SCN(N)C2=O)cc(C(C)(C)C)c1O` [Example 50, 3-amino-5-{[3,5-bis(1,1-dimethylethyl)-4-hydroxyphenyl]methylene}-4-thiazolidinone], the inhibition in vivo at 50 mg/kg was 62%.
Still for that read-out and setting: to `CCCc1cc(C=C2SCNC2=O)cc(CCC)c1O` [Example 57, 5-[(4-hydroxy-3,5-dipropylphenyl)methylene]-4-thiazolidinone] belongs 44.1%.
On the same count and under the same terms, to `CC(C)(C)c1cc(C=C2SCN(CCNCCO)C2=O)cc(C(C)(C)C)c1O` [Example 30, 5-{[3,5-bis(1,1-dimethylethyl)-4-hydroxyphenyl]methylene}-3-[2-(2-hydroxyethylamino)ethyl]-4-thiazolidinone] belongs 44.1%; to `CC(=C1SCN(C)C1=O)c1cc(C(C)(C)C)c(O)c(C(C)(C)C)c1` [Example 25, 5-{[3,5-bis(1,1-dimethylethyl)-4-hydroxyphenyl]methylmethylene}-3-methyl-4-thiazolidinone], 8.5%; to `Cc1cc(C=C2SCNC2=O)cc(C(C)(C)C)c1O` [Example 58, 5-{[3-(1,1-dimethylethyl)-4-hydroxy-5-methylphenyl]methylene}-4-thiazolidinone], 16.9%.
In the case of `CN(C)CCN1CSC(=Cc2cc(C(C)(C)C)c(O)c(C(C)(C)C)c2)C1=O` [Example 29, 5-{[3,5-bis(1,1-dimethylethyl)-4-hydroxyphenyl]methylene}-3-[2-(dimethylamino)ethyl]-4-thiazolidinone], the inhibition in vivo at 50 mg/kg worked out at 49%.
The same measure, in the same setting: the result for `CN(C)CCNCCN1CSC(=Cc2cc(C(C)(C)C)c(O)c(C(C)(C)C)c2)C1=O` [Example 32, 5-{[3,5-bis(1,1-dimethylethyl)-4-hydroxyphenyl]methylene}-3-{2-[[2-(dimethylamino)ethyl]amino]-ethyl}-4-thiazolidinone] reads 48.6%; that for `C#CCN(C)CCN1CSC(=Cc2cc(C(C)(C)C)c(O)c(C(C)(C)C)c2)C1=O` [Example 31, 5-{[3,5-bis(1,1-dimethylethyl)-4-hydroxyphenyl]methylene}-3-[2-(methyl-2-propynylamino)ethyl]-4-thiazolidinone], 28.9%.
The same measure, in the same setting: to `CC(=C1SCN(N(C)C)C1=O)c1cc(C(C)(C)C)c(O)c(C(C)(C)C)c1` [Example 46, 5-{1-[3,5-bis(1,1-dimethylethyl)-4-hydroxyphenyl]methylmethylene}-3-(dimethylamino)-4-thiazolidinone] belongs 9%; to `CNCCCN1CSC(=Cc2cc(C(C)(C)C)c(O)c(C(C)(C)C)c2)C1=O` [Example 34, 5-{[3,5-bis(1,1-dimethylethyl)-4-hydroxyphenyl]methylene}-3-[3-(methylamino)propyl]-4-thiazolidinone], 1.6%; to `CC(C)(C)c1cc(C=C2SCN(Cc3nnn[nH]3)C2=O)cc(C(C)(C)C)c1O` [Example 39, 5-{[3,5-bis(1,1-dimethylethyl)-4-hydroxyphenyl]methylene}-3-(1H-tetrazol-5-ylmethyl)-4-thiazolidinone], 2%.
On to `CN(C)N1C(=O)C(=Cc2cc(C(C)(C)C)c(O)c(C(C)(C)C)c2)SC1=S` [Example 19, 5-{[3,5-bis(1,1-dimethylethyl)-4-hydroxyphenyl]methylene}-3-dimethylamino-2-thioxo-4-thiazolidinone], for which the inhibition in vivo at 50 mg/kg amounted to 20.7%.
`C=CCN1CSC(=Cc2cc(C(C)(C)C)c(O)c(C(C)(C)C)c2)C1=O` [Example 24, 5-{[3,5-bis(1,1-dimethylethyl)-4-hydroxyphenyl]methylene}-3-(2-propenyl)-4-thiazolidinone]: the inhibition in vivo at 50 mg/kg stood at 0%.
On the same count and under the same terms, the result for `CC(C)(C)c1cc(C=C2SCN(N3CCOCC3)C2=O)cc(C(C)(C)C)c1O` [Example 45, 5-{[3,5-bis(1,1-dimethylethyl)-4-hydroxyphenyl]methylene}-3-(4-morpholinyl)-4-thiazolidinone] reads 36%.
